{
  "source": "ChEMBL document CHEMBL6134851",
  "about": "“Comparative Study on Covalent and Noncovalent Endogenous Albumin-Binding β-Glucuronidase-Activated SN38 Prodrugs for Antitumor Efficacy” (J Med Chem, 2025)",
  "key": {"[1]": {"test": "Toxicity in female BALB/cA nude mouse assessed as damage in heart at 15 mg/kg, iv measured after 24 hrs by H and E staining based analysis", "format": "organism-based", "conditions": "in vivo"}, "[2]": {"test": "Toxicity in female BALB/cA nude mouse assessed as effect on body weight loss at 15 mg/kg, iv administered twice per week measured after 107 days", "format": "organism-based", "conditions": "in vivo, 2568 h, time 107 day"}, "[3]": {"test": "Toxicity in female BALB/cA nude mouse assessed as damage in lung at 15 mg/kg, iv measured after 24 hrs by H and E staining based analysis", "format": "organism-based", "conditions": "in vivo"}, "[4]": {"test": "Toxicity in female BALB/cA nude mouse assessed as appearance of fibrosis in heart at 15 mg/kg, iv measured after 24 hrs by H and E staining based analysis", "format": "organism-based", "conditions": "in vivo"}, "[5]": {"test": "Toxicity in female BALB/cA nude mouse assessed as appearance of alveolar wall thickening at 15 mg/kg, iv BID for 35 days by H and E staining based analysis", "format": "organism-based", "conditions": "in vivo, 840 h, time 35 day"}, "[6]": {"test": "Cmax in female BALB/c mouse at 15 mg/kg measured up to 5 hrs by HPLC analysis", "format": "ADME, organism-based", "conditions": "in vivo"}, "[7]": {"test": "Toxicity in female BALB/cA nude mouse assessed as appearance of loss of alveolar architecture at 15 mg/kg, iv BID for 35 days by H and E staining based analysis", "format": "organism-based", "conditions": "in vivo, 840 h, time 35 day"}, "BXPC-3 [8]": {"test_system": "BXPC-3", "test": "Antitumor activity against human BXPC-3 cells xenografted in female BALB/cA nude mouse model assessed as suppression of tumor growth by measuring relative tumor proliferation rate at 38 mg/kg, iv measured after 24 days relative to control", "format": "functional", "conditions": "time 24 day"}, "BXPC-3 [9]": {"test_system": "BXPC-3", "test": "Antitumor activity against human BXPC-3 cells xenografted in female BALB/cA nude mouse model assessed as suppression of tumor growth by measuring relative tumor proliferation rate at 38 mg/kg, iv measured after 35 days", "format": "functional, organism-based", "conditions": "time 35.0 day"}, "[10]": {"test": "Prodrug release in female BALB/c nude mouse tumor assessed as (S)-4,11-diethyl-4,9-dihydroxy-1,12-dihydro-14H-pyrano[3',4':6,7]indolizino[1,2-b]quinoline-3,14(4H)-dione accumulation at 15 mg/kg measured after 1 hr by HPLC analysis", "format": "ADME, organism-based, Neoplasm", "conditions": "in vivo"}, "in vivo": {"test": "in vivo", "conditions": "female, BALB/c, mouse, 15 mg/kg"}, "[11]": {"test": "Toxicity in female BALB/cA nude mouse assessed as necrosis in tumor tissue at 15 mg/kg, iv measured after 24 hrs by H and E staining based analysis", "format": "organism-based", "conditions": "in vivo"}, "[12]": {"test": "Toxicity in female BALB/cA nude mouse assessed as pulmonary damage at 15 mg/kg, iv BID for 35 days by H and E staining based analysis", "format": "organism-based", "conditions": "in vivo, 840 h, time 35 day"}, "[13]": {"test": "Toxicity in female BALB/cA nude mouse assessed as mortality at 15 mg/kg, iv administered twice per week measured after 107 days", "format": "organism-based", "conditions": "in vivo, 2568 h, time 107 day"}, "[14]": {"test": "Toxicity in female BALB/cA nude mouse assessed as appearance of fibrosis in lung at 15 mg/kg, iv measured after 24 hrs by H and E staining based analysis", "format": "organism-based", "conditions": "in vivo"}, "HCT-116 [15]": {"test_system": "HCT-116", "test": "Antitumor activity against human HCT-116 cells xenografted in female BALB/cA nude mouse model assessed as relative tumor proliferation rate at 15 mg/kg, iv administered twice per week measured after 107 days", "format": "functional, organism-based", "conditions": "time 107.0 day"}, "HCT-116 [16]": {"test_system": "HCT-116", "test": "Antitumor activity against human HCT-116 cells xenografted in female BALB/cA nude mouse model assessed as relative tumor proliferation rate at 15 mg/kg, iv administered twice per week measured on 107 days relative to control", "format": "functional", "conditions": "time 107 day"}},
  "note": "Activity calls are given as the source filed them. No cut-off for these calls is given here.",
  "data": [
    {"smiles": "CCc1c2c(nc3ccc(OC(=O)N4CCC(N5CCCCC5)CC4)cc13)-c1cc3c(c(=O)n1C2)COC(=O)[C@]3(O)CC", "note": "[IRINOTECAN]", "values": [
      {"measurement": "Activity", "setting": "[1]", "value": "Toxic"},
      {"measurement": "Activity", "setting": "[2]", "value": "Toxic"},
      {"measurement": "Activity", "setting": "[3]", "value": "Toxic"},
      {"measurement": "Activity", "setting": "[4]", "value": "Toxic"},
      {"measurement": "Activity", "setting": "[5]", "value": "Toxic"},
      {"measurement": "Cmax", "setting": "[6]", "value": 3040, "unit": "ng/mL"},
      {"measurement": "Activity", "setting": "[7]", "value": "Toxic"},
      {"measurement": "Activity", "setting": "BXPC-3 [8]", "value": 43.53, "unit": "%"},
      {"measurement": "Activity", "setting": "BXPC-3 [9]", "value": "inactive"},
      {"measurement": "Drug metabolism", "setting": "[10]", "value": 0.032, "unit": "% ID/g"},
      {"measurement": "AUC(0-t) at 5 h", "setting": "in vivo", "value": 3120, "unit": "ng·h/mL"},
      {"measurement": "Activity", "setting": "[11]", "value": "Toxic"},
      {"measurement": "Activity", "setting": "[12]", "value": "Toxic"},
      {"measurement": "Activity", "setting": "[13]", "value": "Non-toxic"},
      {"measurement": "Activity", "setting": "[14]", "value": "Toxic"},
      {"measurement": "Activity", "setting": "HCT-116 [15]", "value": "inactive"},
      {"measurement": "Activity", "setting": "HCT-116 [16]", "value": 50.36, "unit": "%"}
    ]}
  ]
}
